Data as given in ChEMBL document CHEMBL4118101 (Bioorg Med Chem, 2018).
Values after ≈ are worked out from the molar mass of the structure shown. Active and inactive are the calls of the source. The calls are words filed in the database; no cut-off is given here.

Columns and labels:
[1] = Hemolytic activity in mouse RBC at 3.9 ug/ml after 1 hr relative to control; assay type: ADME, cell-based, Erythrocyte; conditions: mouse red blood cells (erythrocytes), read-out: Activity
Candida albicans [2] = assay: Fungistatic activity against Candida albicans ATCC 10231 at 4 times MIC incubated for 24 hrs by time kill assay; assay type: functional, organism-based
Cryptococcus neoformans [3] = assay: Antifungal activity against Cryptococcus neoformans isolate CN3 measured after 48 hrs by CLSI M27-A3 protocol based method; assay type: functional; conditions: Cryptococcus neoformans, isolate CN3, 48 h; read-out: MIC
Candida parapsilosis [4] = assay: Antifungal activity against Candida parapsilosis isolate CP1 measured after 48 hrs by CLSI M27-A3 protocol based method; assay type: functional; conditions: Lodderomyces parapsilosis, isolate CP1, 48 h
Aspergillus terreus = assay: Antifungal activity against Aspergillus terreus ATCC MYA-3633 measured after 48 hrs by CLSI M38-A2 protocol based method; assay type: functional; conditions: ATCC MYA-3633, 48 h
Candida parapsilosis [5] = assay: Antifungal activity against Candida parapsilosis ATCC 22019 measured after 48 hrs by CLSI M27-A3 protocol based method; assay type: functional; conditions: Lodderomyces parapsilosis, ATCC 22019, 48 h
Nakaseomyces glabratus [6] = assay: Antifungal activity against Candida glabrata ATCC 2001 measured after 48 hrs by CLSI M27-A3 protocol based method; assay type: functional, CBS 138; conditions: Nakaseomyces glabratus, CBS 138, 48 h; read-out: MIC
Candida albicans [7] = assay: Antifungal activity against Candida albicans ATCC 64124 measured after 48 hrs by CLSI M27-A3 protocol based method; assay type: functional; conditions: Candida albicans, ATCC 64124, 48 h; read-out: MIC
Aspergillus nidulans = assay: Antifungal activity against Aspergillus nidulans ATCC 38163 measured after 48 hrs by CLSI M38-A2 protocol based method; assay type: functional; conditions: ATCC 38163, 48 h
[8] = Hemolytic activity in mouse RBC at 0.48 ug/ml after 1 hr relative to control; assay type: ADME, cell-based, Erythrocyte; conditions: mouse red blood cells (erythrocytes), read-out: Activity
Candida albicans [9] = assay: Antifungal activity against Candida albicans ATCC 10231 measured after 48 hrs by CLSI M27-A3 protocol based method; assay type: functional; conditions: ATCC 10231, 48 h
Cryptococcus neoformans [10] = assay: Antifungal activity against Cryptococcus neoformans isolate CN1 measured after 48 hrs by CLSI M27-A3 protocol based method; assay type: functional; conditions: isolate CN1, 48 h
[11] = Hemolytic activity in mouse RBC at 62.5 ug/ml after 1 hr relative to control; assay type: ADME, cell-based, Erythrocyte; conditions: mouse red blood cells (erythrocytes), read-out: Activity
Nakaseomyces glabratus [12] = assay: Antifungal activity against Candida glabrata isolate CG3 measured after 48 hrs by CLSI M27-A3 protocol based method; assay type: functional; conditions: Nakaseomyces glabratus, 48 h; read-out: MIC
Candida albicans [13] = assay: Antifungal activity against fluconazole/ITC-resistant Candida albicans ATCC MYA-1237 measured after 48 hrs by CLSI M27-A3 protocol based method; assay type: functional; conditions: Candida albicans, ATCC MYA-1237, 48 h; read-out: MIC
Candida albicans [14] = assay: Antifungal activity against fluconazole/ITC-resistant Candida albicans ATCC 90819 measured after 48 hrs by CLSI M27-A3 protocol based method; assay type: functional; conditions: Candida albicans, ATCC 90819, 48 h; read-out: MIC
Nakaseomyces glabratus [15] = assay: Antifungal activity against Candida glabrata isolate CG1 measured after 48 hrs by CLSI M27-A3 protocol based method; assay type: functional; conditions: Nakaseomyces glabratus, 48 h; read-out: MIC
Aspergillus flavus = assay: Antifungal activity against Aspergillus flavus ATCC MYA-3631 measured after 48 hrs by CLSI M38-A2 protocol based method; assay type: functional; conditions: ATCC MYA-3631, 48 h
Candida parapsilosis [16] = assay: Antifungal activity against Candida parapsilosis isolate CP2 measured after 48 hrs by CLSI M27-A3 protocol based method; assay type: functional; conditions: Lodderomyces parapsilosis, isolate CP2, 48 h
Candida albicans [17] = assay: Antifungal activity against fluconazole/ITC-resistant Candida albicans ATCC MYA-1003 measured after 48 hrs by CLSI M27-A3 protocol based method; assay type: functional; conditions: Candida albicans, ATCC MYA-1003, 48 h; read-out: MIC
Candida albicans [18] = assay: Antifungal activity against fluconazole/ITC-susceptible Candida albicans ATCC MYA-2876 measured after 48 hrs by CLSI M27-A3 protocol based method; assay type: functional; conditions: Candida albicans, ATCC MYA-2876, 48 h
Pichia kudriavzevii = assay: Antifungal activity against Candida krusei ATCC 6258 measured after 48 hrs by CLSI M27-A3 protocol based method; assay type: functional; conditions: Pichia kudriavzevii, ATCC 6258, 48 h
Cryptococcus neoformans [19] = assay: Antifungal activity against Cryptococcus neoformans isolate CN2 measured after 48 hrs by CLSI M27-A3 protocol based method; assay type: functional; conditions: Cryptococcus neoformans, isolate CN2, 48 h; read-out: MIC
BEAS-2B = assay: Cytotoxicity against human BEAS2B cells at 31 ug/ml after 24 hrs by resazurin based assay; assay type: cell-based
Candida parapsilosis [20] = assay: Fungistatic activity against Candida parapsilosis ATCC 22019 up to 4 times MIC incubated for 24 hrs by time kill assay; assay type: functional, organism-based
Candida parapsilosis [21] = assay: Antifungal activity against Candida parapsilosis isolate CP3 measured after 48 hrs by CLSI M27-A3 protocol based method; assay type: functional; conditions: Lodderomyces parapsilosis, isolate CP3, 48 h
Candida albicans [22] = assay: Antifungal activity against fluconazole/ITC-susceptible Candida albicans ATCC MYA-2310 measured after 48 hrs by CLSI M27-A3 protocol based method; assay type: functional; conditions: Candida albicans, ATCC MYA-2310, 48 h; read-out: MIC
[23] = Hemolytic activity in mouse RBC at 31.3 ug/ml after 1 hr relative to control; assay type: ADME, cell-based, Erythrocyte; conditions: mouse red blood cells (erythrocytes), at 31.3 µg/mL, read-out: Activity
[24] = Hemolytic activity in mouse RBC at 1.95 ug/ml after 1 hr relative to control; assay type: ADME, cell-based, Erythrocyte; conditions: mouse red blood cells (erythrocytes), at 1.95 µg/mL, read-out: Activity
HEK293 = assay: Cytotoxicity against HEK293 cells up to 31 ug/ml after 24 hrs by resazurin based assay; assay type: cell-based; conditions: human, hek293, 24 h
[25] = Hemolytic activity in mouse RBC at […] ug/ml after 1 hr relative to control; assay type: ADME, cell-based, Erythrocyte; conditions: mouse red blood cells (erythrocytes), read-out: Activity
Nakaseomyces glabratus [26] = assay: Antifungal activity against Candida glabrata isolate CG2 measured after 48 hrs by CLSI M27-A3 protocol based method; assay type: functional; conditions: Nakaseomyces glabratus, isolate CG2, 48 h; read-out: MIC
Candida albicans [27] = assay: Induction of membrane permeabilization in Candida albicans ATCC 10231 assessed as membrane disruption at 4 times MIC after 1 hr by propidium iodide staining based fluorescence microscopy; assay type: functional, organism-based
A549 = assay: Cytotoxicity against human A549 cells at 15.5 ug/ml after 24 hrs by resazurin based assay; assay type: cell-based; conditions: a549, 24 h
[28] = Hemolytic activity in mouse RBC at 7.8 ug/ml after 1 hr relative to control; assay type: ADME, cell-based, Erythrocyte; conditions: mouse red blood cells (erythrocytes), read-out: Activity

## CCCCCCCCNCC(O)(Cn1cncn1)c1ccc(F)cc1F (stereo unspecified)
[1]
  hemolysis at 1 h, 3.9 ug/ml: 2%
Candida albicans [2]
  Activity: Active
Cryptococcus neoformans [3]
  MIC: 10.6 µM (≈ 3.88 µg/mL)
Candida parapsilosis [4]
  MIC: 1.3 µM (≈ 0.476 µg/mL)
Aspergillus terreus
  MIC: 42.6 µM (≈ 15.6 µg/mL)
Candida parapsilosis [5]
  MIC: 0.16 µM (≈ 0.0586 µg/mL)
Nakaseomyces glabratus [6]
  MIC: 2.7 to 21.3 µM (≈ 0.989 to 7.81 µg/mL)
Candida albicans [7]
  MIC: > 85.4 µM
Aspergillus nidulans
  MIC: 5.3 µM (≈ 1.94 µg/mL)
[8]
  hemolysis at 1 h, 0.48 ug/ml: 2%
Candida albicans [9]
  MIC: 2.7 µM (≈ 0.989 µg/mL)
Cryptococcus neoformans [10]
  MIC: 5.3 µM (≈ 1.94 µg/mL)
[11]
  hemolysis at 1 h, 62.5 ug/ml: 78%
Nakaseomyces glabratus [12]
  MIC: 42.6 µM (≈ 15.6 µg/mL)
Candida albicans [13]
  MIC: 42.6 µM (≈ 15.6 µg/mL)
Candida albicans [14]
  MIC: 21.3 µM (≈ 7.81 µg/mL)
Nakaseomyces glabratus [15]
  MIC: 21.3 µM (≈ 7.81 µg/mL)
Aspergillus flavus
  MIC: > 85.4 µM
Candida parapsilosis [16]
  MIC: 0.33 µM (≈ 0.121 µg/mL)
Candida albicans [17]
  MIC: 85.4 µM (≈ 31.3 µg/mL)
Candida albicans [18]
  MIC: 85.4 µM (≈ 31.3 µg/mL)
Pichia kudriavzevii
  MIC: 2.7 µM (≈ 0.989 µg/mL)
Cryptococcus neoformans [19]
  MIC: 10.6 µM (≈ 3.88 µg/mL)
BEAS-2B
  Activity: Non-Toxic
Candida parapsilosis [20]
  Activity: Active
Candida parapsilosis [21]
  MIC: 0.65 µM (≈ 0.238 µg/mL)
Candida albicans [22]
  MIC: 85.4 µM (≈ 31.3 µg/mL)
[23]
  hemolysis at 1 h, 31.3 ug/ml: 9%
[24]
  hemolysis at 1 h, 1.95 ug/ml: 0%
HEK293
  Activity: Non-Toxic
[25]
  hemolysis at 1 h, 0.975 ug/ml: 2%
  hemolysis at 1 h, 15.6 ug/ml: 3%
Nakaseomyces glabratus [26]
  MIC: 2.7 µM (≈ 0.989 µg/mL)
Candida albicans [27]
  Activity: inactive
A549
  Activity: Non-Toxic
[28]
  hemolysis at 1 h, 7.8 ug/ml: 0%
